Test results: PubChem BioAssay (NCI)
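The compound was tested at five concentrations on cells cultured in 96-well plates, with a 48-hour exposure period. Abbreviation: GI50, concentration required for 50% inhibition of growth. TGI is the concentration that stops growth completely.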

Columns and labels:
Experiment in all cases: NCI tumour cell line growth inhibition, 48 h
SNB-78 CNS = system: SNB-78 CNS
LXFL 529 NSCLC = system: LXFL 529 NSCLC
HOP-18 NSCLC = system: HOP-18 NSCLC
RXF-631 renal = system: RXF-631 renal
DMS 114 small cell lung = system: DMS 114 small cell lung
M19-MEL melanoma = system: M19-MEL melanoma
KM20L2 colon = system: KM20L2 colon
XF 498 CNS = system: XF 498 CNS
MDA-N = system: MDA-N

Compound | TGI (SNB-78 CNS) [µM] | TGI (LXFL 529 NSCLC) [µM] | TGI (HOP-18 NSCLC) [µM] | TGI (RXF-631 renal) [µM] | TGI (DMS 114 small cell lung) [µM] | TGI (M19-MEL melanoma) [µM] | TGI (KM20L2 colon) [µM] | TGI (XF 498 CNS) [µM] | also measured
CCCCCCCCCCCCCCCC(=O)OCCOCCOCCOCCOCCOC(=O)CCCCCCCCCCCCCCC | > 100 | > 100 | > 100 | > 100 | > 100 | > 100 | > 100 |  | 
Nc1nc2c(-c3ccc([N+](=O)[O-])cc3)nnn2c2ccccc12 | > 100 | > 100 | > 100 |  |  | > 100 |  | > 100 | 
C[N+](C)(C)c1cc[c]([Sn]([c]2ccc([N+](C)(C)C)cc2)([c]2ccc([N+](C)(C)C)cc2)[c]2ccc([N+](C)(C)C)cc2)cc1 |  | > 100 | > 100 | > 100 | > 100 | > 100 | > 100 | > 100 | GI50 (LXFL 529 NSCLC): > 100 µM; GI50 (HOP-18 NSCLC): > 100 µM; GI50 (XF 498 CNS): > 100 µM; GI50 (RXF-631 renal): > 100 µM; GI50 (DMS 114 small cell lung): > 100 µM; GI50 (M19-MEL melanoma): > 100 µM; GI50 (KM20L2 colon): > 100 µM
CCCc1nc(Cl)c(Cl)c(Cl)n1 |  |  |  |  |  |  |  |  | TGI (MDA-N): > 100 µM
CCc1cc2c(O)c(c1)Cc1cc(CC)cc(c1O)Cc1cc(CC)cc(c1O)Cc1cc(CC)cc(c1O)Cc1cc(CC)cc(c1O)Cc1cc(CC)cc(c1O)Cc1cc(CC)cc(c1O)C2 | > 100 | > 100 |  |  | > 100 | > 100 | > 100 | > 100 | 
CC1C=CC(C(N)C(=O)O)O1 (stereo not given) | > 100 | > 100 |  |  | > 100 | > 100 | > 100 | > 100 | 
c1ccc2c(c1)Cc1c(Cc3csc4ccccc34)ccc3cccc-2c13 | > 100 | > 100 |  | > 100 | > 100 | > 100 | > 100 | > 100 | 
COc1ccc(/C=C/C(=O)c2c(-c3ccccc3)nn(C)c(=O)c2N2CCOCC2)cc1 |  | > 100 | > 100 | > 100 | > 100 | > 100 | > 100 | 83.9 | 
CCOC(=N)CC(=O)Nc1ccccc1 | > 46.4 | > 46.4 | > 31.6 |  | > 46.4 | > 46.4 | > 100 | > 67 | 
Cc1c2ccncc2c(C)c2c1sc1ccccc12 |  |  |  |  |  |  |  |  | TGI (MDA-N): 47.6 µM
N#C/C(=C1\OC(=N)C(c2ccccc2)C1=O)c1ccccc1 (stereo not given) | > 100 | 36.3 | 92.3 |  | > 82.2 | 56.5 | > 100 | 46.2 | 
C/C=C/C(=O)[O-].C/C=C/C(=O)[O-].N.N.N.N.[Co+3].[O-][Cl+3]([O-])([O-])[O-] | > 100 | > 100 |  |  |  |  | > 100 |  | GI50 (SNB-78 CNS): > 100 µM; GI50 (LXFL 529 NSCLC): > 100 µM; GI50 (KM20L2 colon): > 100 µM
Cc1ccc(N=C2N=C(N3CC(C)OC(C)C3)c3ccccc32)cc1 (stereo not given) | > 100 | 57.6 |  | > 100 |  | > 100 | > 100 | 64.5 | 
O=C(N=c1nc(NC(=O)c2ccccc2)ss1)c1ccccc1 | > 100 |  |  |  | 90.3 | > 100 | > 100 |  | 
COc1cc([N+](=O)[O-])c(S(=O)(=O)O)cc1-n1nc(C(=O)Nc2ccccc2)n[n+]1-c1cc(S(=O)(=O)[O-])c([N+](=O)[O-])cc1OC |  |  |  |  |  |  |  |  | TGI (MDA-N): > 100 µM
